According to publication PMC6281413, “Inhibition of breast cancer metastasis to the lungs with UBS109” (Oncotarget, 2018):
Where “and” joins values, the source holds several entries; their conditions need not be identical. Equal entries are not always repeated. Entries after “also recorded” stand apart in the source; their conditions may differ. Where two headings read alike, the source gives them in different places.

How the values were obtained:
[1] = tested on: human pancreatic cancer cells MiaPaca-2, ASPC-1, PT45P1 and PT45P1/asTF+; design: method as in doi:10.14319/ijcto.32.19; details: cited from earlier work; for ranking of the cytotoxic activities: four human pancreatic cancer cell lines
[2] = tested on: NCI-60 cancer cell line panel; design: method as in PMID 15210154, PMID 15711178, PMID 16722634; details: mean, read-out: mean growth inhibitory concentration GI50; cited from earlier work
[3] = tested on: MDA-MB-231 xenografts in the lungs; experiment: breast cancer lung metastasis (colonization) model, MDA-MB-231 cells injected into the tail vein; assay type: in vivo, athymic nude mice; details: for Lung weight (breast tumor nodules): n=4, ± S.D., vehicle control 296.6 ± 18.8
Method: The effect of UBS109 administration on lung metastasis was examined in mice bearing MDA-MB-231 xenografts in the lungs. Animals were administered therapeutic regimens of UBS109 by i.p. once/day 5 days/week (M-F) for 5 weeks, in the following groups: control vehicle, UBS109 at 5 mg/kg in vehicle, and UBS109 15 mg/kg in vehicle (n = 4). […] The cancer cells were mainly found in the lungs and some other sites. […] Treatment with UBS109 15 mg/kg appears the most efficacious in inhibiting tumors (lung colonies) (Figures 2 and 3). […] Lung weight was used to assess the breast cancer colony load present in the lungs of each mouse, since it is difficult to accurately count all colonies outside and inside in each lung.
Female athymic nude mice (nu/nu, Harlan Sprague-Dawley strain; 5-6 weeks old) were housed in a pathogen-free facility. All procedures and protocols were approved by the Institutional Animal Care and Use Committee at Emory University. Mice were randomized into […]: normal group (no tumor cells injected), lung metastasis model group (vehicle control), and two UBS109-treated groups with different dosages, 5 and 15 mg/kg body weight, 4 mice in each group.
Athymic nude mice were housed in a pathogen-free facility and were intravenously injected into the tail vein with breast cancer MDA-MB-231 bone metastatic cells (10^6 cells/mouse) to result in lung metastasis (colonization). One week following injection, mice were randomized to receive either vehicle (0.5% carboxymethyl cellulose sodium [CMC] with 10% DMSO in sterile water) or drug (UBS109). The agents (vehicle, UBS109 at 5 or 15 mg/kg body weight) were administered intraperitoneally (i.p.) daily 5 days per week for 5 weeks (n = 4 mice/regimen). CMC was dissolved in distilled water and sterilized by autoclaving. Due to chemical instability, a stock solution of the drugs was made fresh each time, by weighing out 100 mg UBS109 and dissolving it in 1 mL of 100% DMSO by briefly heating before making the appropriate dilution. […] Body weights were measured once a week.

[4] = body weight / toxicity during treatment in the lung metastasis model; assay type: in vivo, athymic nude mice
Method: Athymic nude mice were housed in a pathogen-free facility and were intravenously injected into the tail vein with breast cancer MDA-MB-231 bone metastatic cells (10^6 cells/mouse) to result in lung metastasis (colonization). One week following injection, mice were randomized to receive either vehicle (0.5% carboxymethyl cellulose sodium [CMC] with 10% DMSO in sterile water) or drug (UBS109). The agents (vehicle, UBS109 at 5 or 15 mg/kg body weight) were administered intraperitoneally (i.p.) daily 5 days per week for 5 weeks (n = 4 mice/regimen). CMC was dissolved in distilled water and sterilized by autoclaving. Due to chemical instability, a stock solution of the drugs was made fresh each time, by weighing out 100 mg UBS109 and dissolving it in 1 mL of 100% DMSO by briefly heating before making the appropriate dilution. After UBS109 administration for 5 weeks, animals were sacrificed. The lungs containing breast cancer tumors were weighed and fixed in 10% neutralized formalin for 48 h. Paraffin embedded blocks were stained with hematoxylin and eosin (H&E). Body weights were measured once a week.

[5] = pharmacokinetic study, single i.p. dose, plasma by LC/MS/MS; assay type: in vivo, CD-1 mice; details: 15 mg/kg i.p.
Method: Pharmacokinetic analysis of the plasma concentration time curve for each animal was conducted using noncompartmental analysis with WinNonlin® Version 6.3.0 (Figure 5). […] This is approximately […] in the blood of mice and, given the molecular weight of UBS109 of 291.4, yields a blood concentration of approximately 1.5 μM.
A pharmacokinetic (PK) study was performed by Agilux Laboratories Inc./Charles River laboratories, Inc. (Worcester, MA, USA). Male CD-1 mice (Harlan Laboratories, Inc.) weighing 28 ± 1.6 grams were used for the PK study. Three mice were administered a single i.p. dose of UBS109 15 mg/kg in 10% DMSO and 90% PBS.
A blood sample (approximately 35–40 μL) was taken from each animal from the tail vein at 4 different time points after dosing: 0.25, 0.5, 2, and 8 h (n=3 mice/time point). Samples were collected into K2EDTA-coated Microvette tubes (Sarstedt) on wet ice (protected from light) and processed to plasma by centrifugation (3500 rpm at 5°C) within 1 hour of collection. All plasma samples were transferred into separate 96 well plates (matrix tubes) and stored at −80°C until analysis for the parent drug by Agilux Laboratories/Charles River laboratories, Inc. via LC/MS/MS.
The plasma samples (10 μL) were deproteinated with acetonitrile (80 μL) and analyzed by LC/MS/MS using an internal standard (carbutamide) spiking technique with an AB SCIEX 6500+ system equipped with a Waters Acuity BEH C18 UPLC column (2 × 50 mm, 1.7 μm) operating at 55°C with mobile phases A (95:5:0.1 H2O:CAN:FA) and B (50:50:0.1 CAN:MeOH:FA). The corresponding time courses were 1.40 and 2.10 min (%MPB 95; Flow 0.800 mL/min) followed by a 2.80 min Strong Needle Rinse (25:25:25:25:0.1 (v:v:v:v:v) MeOH:ACN:IPA:H2O:NH4OH). The verified research grade bioanalytical assay method to determine the plasma concentrations of UBS109 (RGA Level 1) employed an API 6500+ electrospray, positive ion MS/MS device. The mean, standard deviation, and %CV of plasma levels were determined using Microsoft® Office Excel 2007. Mean concentration data was plotted against time to create plasma concentration versus time profiles at each dosage (Table 2 and Figure 5).
Pharmacokinetic analysis of the plasma concentration time curve for each animal was conducted using noncompartmental analysis with WinNonlin® Version 6.3.0. Areas under the curve (AUC) were estimated using the linear trapezoidal rule. The first order rate constant (Lambda Z) associated with the terminal (log-linear) elimination phase was estimated using linear regression of at least three nonzero concentrations versus time points in the late phase of the log concentration versus time profile. The half-life (t.) was calculated as ln(2)/Lambda Z. Nominal times were used in all the data analyses.

[6] = tested on: MDA-MB-231 breast cancer cells; design: method as in PMID 24628271; details: at 1.25 μM, in vitro; cited from earlier work
[7] = design: method as in PMID 24628271, PMID 23933177, doi:10.14319/ijcto.32.19; details: cited from earlier work

NC1(c2ccc(-c3nc4ccn5c(=O)[nH]nc5c4cc3-c3ccccc3)cc2)CCC1 [Akt inhibitor]
ranking of the cytotoxic activities [1]: UBS109> EF24> HSP90 inhibitor> gemcitabine> Akt inhibitor> p38 MAPK inhibitor

O=C1/C(=C/c2ccccc2F)CNC/C1=C\c1ccccc1F [EF24, 3,5-bis(2-flurobenzylidene)piperidin-4-one]
GI50 [2]: 0.7 µM | ranking of the cytotoxic activities [1]: UBS109> EF24> HSP90 inhibitor> gemcitabine> Akt inhibitor> p38 MAPK inhibitor

CC(C)c1cc(-c2n[nH]c(=O)n2-c2ccc3c(ccn3C)c2)c(O)cc1O [HSP90 inhibitor]
ranking of the cytotoxic activities [1]: UBS109> EF24> HSP90 inhibitor> gemcitabine> Akt inhibitor> p38 MAPK inhibitor

CN1CC(=Cc2ccccn2)C(=O)C(=Cc2ccccn2)C1 [UBS109, 3,5-bis(2-pyridinylmethylidene)-1-methyl-4-piperidone]
effect on lung metastasis/colonization (tumor deposition in the lungs by weight) ([3]; 15 mg/kg i.p. once daily 5 days/week for 5 weeks): significantly reduced; also recorded: significantly inhibited; also recorded: inhibited lung metastases | Lung weight (breast tumor nodules) ([3]; UBS109 5 mg/kg i.p. once daily 5 days/week for 5 weeks): 285.9 ± 11.2 mg | Lung weight (breast tumor nodules) ([3]; UBS109 15 mg/kg i.p. once daily 5 days/week for 5 weeks, p<0.05 vs control): 226.6 ± 19.8 mg | toxicity judged from body weight ([4]; 5 or 15 mg/kg body weight i.p. once daily 5 days a week for 5 weeks): not toxic | body weight during treatment ([4]; 5 or 15 mg/kg i.p. once daily 5 days/week for 5 weeks, versus controls): did not lose weight; also recorded: remained the same as in the other groups | AUClast ([5]; individual mouse): 813 ng·h/mL and 116 ng·h/mL and 1061 ng·h/mL | Cmax ([5]; individual mouse): 398 ng/mL and 623 ng/mL and 835 ng/mL | Extrapolated (AUC) ([5]; individual mouse): 6.15% | Extrapolated (AUC) ([5]; mean (only mouse 2 reported)): 6.15% | T ½ ([5]; mean of mice (only mouse 2 reported)): 1.97 h | approximate concentration in the blood of mice ([5]; restated from Cmax): approximately 1.5 ng/ml | Cmax ([5]; male, CD-1, mouse, plasma, ip, 15 mg/kg, at 15 min post injection, read-out: maximal blood concentration (Cmax)): 432 ± 387 ng/mL | AUC(0-t) ([5]; male, CD-1, mouse, plasma, ip, 15 mg/kg, mean of 3 mice): 664 ng·h/mL | Cmax ([5]; male, CD-1, mouse, plasma, ip, 15 mg/kg, mean of 3 mice, read-out: Cmax): 619 ng/mL | Tmax ([5]; male, CD-1, mouse, plasma, ip, read-out: time of maximal blood concentration post injection (converted)): 0.25 h | AUC(0-inf) ([5]; male, CD-1, plasma, ip, individual mouse): 124 ng·h/mL | half-life ([5]; male, CD-1, plasma, ip, individual mouse, read-out: T ½ (converted)): 1.97 h | cell killing of MDA-MB-231 cells [6]: 100% | inhibition of all four pancreatic cancer cell lines ([1]; at 0.25 μM): 100% | ranking of the cytotoxic activities [1]: UBS109> EF24> HSP90 inhibitor> gemcitabine> Akt inhibitor> p38 MAPK inhibitor | water solubility relative to other MACs [7]: most water soluble among the MACs

N.N.[Cl][Pt][Cl] [cisplatin]
GI50 [2]: 9.5 µM

Nc1ccn([C@@H]2O[C@H](CO)[C@@H](O)C2(F)F)c(=O)n1 [gemcitabine]
ranking of the cytotoxic activities [1]: UBS109> EF24> HSP90 inhibitor> gemcitabine> Akt inhibitor> p38 MAPK inhibitor | maximal killing of pancreatic cancer cells ([1]; up to 20 μM used in the test): above 50%

diferuloylmethane [curcumin]
GI50 [2]: 7.3 µM
